Values of other authors as cited in patent US20250295562A1, “Formulation for treatment of melasma, hyperpigmentation, and dark spots” (priority 2024, published 2025).

How the values were obtained:
[1] = clinical
[2] = tested on: bacteria
[3] = tested on: collagenase

SMILES	anti-acne effect [1]	bactericidal activity [2]	anticollagenase inhibitory activity [3]
CCCCC/C=C\C/C=C\CCCCCCCC(=O)OCC [Ethyl Linoleate, Ethyl linoleate]	effective anti-acne agent		
CC(C)=CCC1=C(O)C(C(=O)CC(C)C)=C(O)C(CC=C(C)C)(CC=C(C)C)C1=O [lupulone]		exhibited bactericidal activity	moderate to strong
COc1cc(O)c(CC=C(C)C)c(O)c1C(=O)/C=C/c1ccc(O)cc1 [xanthohumol]		exhibited bactericidal activity	moderate to strong
